Experimental data: ChEMBL document CHEMBL3352713, “A new class of salicylic acid derivatives for inhibiting YopH of Yersinia pestis” (Bioorg Med Chem, 2014)

Experiments:
[1] = Inhibition of Yersinia pestis YopH using […] as substrate by spectrophotometry
[2] = Selectivity for Yersinia pestis YopH over PTP1B (unknown origin) at 5 nM
[3] = Selectivity for Yersinia pestis YopH over TCPTP (unknown origin) at 5 nM
[4] = Selectivity for Yersinia pestis YopH over HePTP (unknown origin) at 5 nM
[5] = Selectivity for Yersinia pestis YopH over CD45 (unknown origin) at 5 nM
[6] = Selectivity for Yersinia pestis YopH over VHR (unknown origin) at 5 nM
[7] = Selectivity for Yersinia pestis YopH over Cdc25A (unknown origin) at 5 nM

Compound | IC50 [1] | other results
O=C(CCCCNC(=O)c1cc(-c2ccc(O)c(C(=O)O)c2)cs1)Nc1nc2ccccc2s1 | 39.5 µM | –
O=C(CCCCNC(=O)c1ccc(-c2ccc(O)c(C(=O)O)c2)s1)Nc1ccc(N2CCOCC2)cc1 | > 200 µM | –
O=C(CCCCNC(=O)c1cc(-c2ccc(O)c(C(=O)O)c2)cs1)Nc1nc(-c2ccccc2)cs1 | 44.2 µM | –
O=C(CCCCNC(=O)c1cc(-c2ccc(O)c(C(=O)O)c2)on1)Nc1nc(-c2ccccc2)cs1 | 23 µM | –
O=C(CCCCNC(=O)c1ccc(-c2ccc(O)c(C(=O)O)c2)s1)Nc1nc(-c2ccccc2)cs1 | 11.1 µM | –
O=C(O)C1=CC(=C(c2ccc(O)c(C(=O)O)c2)c2ccc(O)c(C(=O)O)c2)C=CC1=O [AURINTRICARBOXYLIC ACID] | – | Ki [1]: 0.005 µM; Selectivity ratio [2]: 6; Selectivity ratio [3]: 6; Selectivity ratio [4]: 6; Selectivity ratio [5]: 6; Selectivity ratio [6]: 6; Selectivity ratio [7]: 6
O=C(CCCCNC(=O)c1cc(-c2ccc(O)c(C(=O)O)c2)on1)Nc1ccc(N2CCOCC2)cc1 | 63 µM | –
O=C(CCCCNC(=O)c1ccc(-c2ccc(O)c(C(=O)O)c2)s1)Nc1nc2ccccc2s1 | > 20 µM | –
O=C(CCNC(=O)c1ccc(-c2ccc(O)c(C(=O)O)c2)s1)Nc1nc(-c2ccccc2)cs1 | > 50 µM | –
O=C(CCCCNC(=O)c1ccc(-c2ccc(O)c(C(=O)O)c2)s1)NCc1ccccc1 | > 200 µM | –
